Experimental data reported in ChEMBL document CHEMBL1158551, “Click reaction synthesis of carbohydrate derivatives from ristocetin aglycon with antibacterial and antiviral activity” (Bioorg Med Chem Lett, 2010).
pEC50: −log10 of the molar value. In brackets after ≈: the same amount, converted by molar mass.

Assays:
Bacillus subtilis = test: Antibacterial activity against Bacillus subtilis ATCC 6633 by broth microdilution method; format: functional
Staphylococcus aureus [1] = test: Antibacterial activity against methicillin-[…] Staphylococcus aureus ATCC 33591 by broth microdilution method; format: functional
Staphylococcus aureus [2] = test: Antibacterial activity against methicillin-[…] Staphylococcus aureus ATCC 29213 by broth microdilution method; format: functional
[3] = tested on: Staphylococcus epidermidis; test: Antibacterial activity against biofilm positive Staphylococcus epidermidis ATCC 35984; format: functional
[4] = tested on: Staphylococcus epidermidis; test: Antibacterial activity against Staphylococcus epidermidis by broth microdilution method; format: functional
Enterococcus faecalis [5] = test: Antibacterial activity against vancomycin and teicoplanin-sensitive Enterococcus faecalis ATCC 29212 by broth microdilution method; format: functional
Enterococcus faecalis [6] = test: Antibacterial activity against vancomycin-resistant and teicoplanin-sensitive Enterococcus faecalis ATCC 5129 expressing VanB gene by broth microdilution method; format: functional
Enterococcus faecalis [7] = test: Antibacterial activity against vancomycin and teicoplanin-resistant Enterococcus faecalis 15376 expressing VanA gene by broth microdilution method; format: functional
Influenza A virus [8] = test: Antiviral activity against influenza A virus H1N1 assessed as inhibition of viral induced cytopathic effect; format: functional, organism-based
Influenza A virus [9] = test: Antiviral activity against Influenza A virus H3N2 assessed as inhibition of viral induced cytopathic effect; format: functional, organism-based
Influenza A virus [10] = test: Antiviral activity against Influenza A virus H3N2 assessed as cell viability by cell based MTS assay; format: functional, organism-based
Influenza B virus [11] = test: Antiviral activity against influenza B virus assessed as inhibition of viral induced cytopathic effect; format: functional, organism-based
Influenza B virus [12] = test: Antiviral activity against influenza B virus assessed as cell viability by cell based MTS assay; format: functional, organism-based
Influenza A virus [13] = test: Antiviral activity against influenza A virus H1N1 assessed as cell viability by cell based MTS assay; format: functional, organism-based

| Structure (SMILES) | MBC (Bacillus subtilis) [µg/mL] | MIC (Bacillus subtilis) [µg/mL] | MBC (Staphylococcus aureus [1]) [µg/mL] | MIC (Staphylococcus aureus [1]) [µg/mL] | MBC (Staphylococcus aureus [2]) [µg/mL] | MIC (Staphylococcus aureus [2]) [µg/mL] | MBC [3] [µg/mL] | MIC [3] [µg/mL] | MBC [4] [µg/mL] | MIC [4] [µg/mL] | MBC (Enterococcus faecalis [5]) [µg/mL] | MIC (Enterococcus faecalis [5]) [µg/mL] | MBC (Enterococcus faecalis [6]) [µg/mL] | MIC (Enterococcus faecalis [6]) [µg/mL] | MIC (Enterococcus faecalis [7]) [µg/mL] | pEC50 (Influenza A virus [8]) | pEC50 (Influenza A virus [9]) | pEC50 (Influenza A virus [10]) | pEC50 (Influenza B virus [11]) | pEC50 (Influenza B virus [12]) | other results |
| --- | --- | --- | --- | --- | --- | --- | --- | --- | --- | --- | --- | --- | --- | --- | --- | --- | --- | --- | --- | --- | --- |
| COC(=O)[C@H]1NC(=O)[C@H]2NC(=O)[C@H](NC(=O)[C@@H]3NC(=O)[C@H]4NC(=O)[C@H](NC(=O)[C@H](n5cc(CO[C@@H]6O[C@@H](C)[C@H](O)[C@@H](O)[C@H]6O)nn5)c5ccc(O)c(c5)Oc5cc4cc(O)c5C)[C@H](O)c4ccc(cc4)Oc4cc3cc(c4O)Oc3ccc(cc3)[C@H]2O)c2ccc(O)c(c2)-c2c(O)cc(O)cc21 | 16 (≈ 11.4 µM) | 16 (≈ 11.4 µM) | 16 (≈ 11.4 µM) | 8 (≈ 5.7 µM) | 8 (≈ 5.7 µM) | 8 (≈ 5.7 µM) | 16 (≈ 11.4 µM) | 16 (≈ 11.4 µM) | 32 (≈ 22.8 µM) | 16 (≈ 11.4 µM) | 256 (≈ 183 µM) | 32 (≈ 22.8 µM) | 128 (≈ 91.3 µM) | 64 (≈ 45.6 µM) | 16 (≈ 11.4 µM) |  |  |  |  |  | MBC (Enterococcus faecalis [7]): 256 µg/mL (≈ 183 µM) |
| Cc1c(O)cc2cc1Oc1cc(ccc1O)[C@@H](N)C(=O)N[C@H]1C(=O)N[C@@H]2C(=O)N[C@H]2C(=O)N[C@H]3C(=O)N[C@H](C(=O)N[C@@H](C(=O)O)c4cc(O)cc(O[C@H]5O[C@H](CO)[C@@H](O)[C@H](O)[C@@H]5O)c4-c4cc3ccc4O)[C@H](O[C@H]3C[C@@H](N)[C@@H](O)[C@H](C)O3)c3ccc(cc3)Oc3cc2cc(c3O[C@H]2O[C@@H](CO[C@H]3O[C@H](C)[C@@H](O)[C@H](O)[C@@H]3O)[C@H](O)[C@@H](O)[C@@H]2O[C@H]2O[C@H](CO)[C@@H](O)[C@H](O)[C@@H]2O[C@H]2O[C@H](CO)[C@@H](O)[C@@H]2O)Oc2ccc(cc2)[C@H]1O [RISTOCETIN] | 4 (≈ 1.95 µM) | 2 (≈ 0.974 µM) | 64 (≈ 31.2 µM) | 16 (≈ 7.79 µM) | 64 (≈ 31.2 µM) | 16 (≈ 7.79 µM) | 64 (≈ 31.2 µM) | 32 (≈ 15.6 µM) | 16 (≈ 7.79 µM) | 16 (≈ 7.79 µM) | 256 (≈ 125 µM) | 4 (≈ 1.95 µM) | 256 (≈ 125 µM) | 128 (≈ 62.3 µM) | 128 (≈ 62.3 µM) |  |  |  |  |  | MBC (Enterococcus faecalis [7]): 256 µg/mL (≈ 125 µM) |
| COC(=O)[C@H]1NC(=O)[C@H]2NC(=O)[C@H](NC(=O)[C@@H]3NC(=O)[C@H]4NC(=O)[C@H](NC(=O)[C@H](N=[N+]=[N-])c5ccc(O)c(c5)Oc5cc4cc(O)c5C)[C@H](O)c4ccc(cc4)Oc4cc3cc(c4O)Oc3ccc(cc3)[C@H]2O)c2ccc(O)c(c2)-c2c(O)cc(O)cc21 [listing 1 of 2 here] |  |  |  |  |  |  |  |  |  |  |  |  |  |  |  | 5.02 | ≤ 4.70 | ≤ 5.05 | < 4.00 | < 4.00 |  |
| COC(=O)[C@H]1NC(=O)[C@H]2NC(=O)[C@H](NC(=O)[C@@H]3NC(=O)[C@H]4NC(=O)[C@H](NC(=O)[C@H](N=[N+]=[N-])c5ccc(O)c(c5)Oc5cc4cc(O)c5C)[C@H](O)c4ccc(cc4)Oc4cc3cc(c4O)Oc3ccc(cc3)[C@H]2O)c2ccc(O)c(c2)-c2c(O)cc(O)cc21 [listing 2 of 2 here] | 4 (≈ 3.33 µM) | 1 (≈ 0.833 µM) | 2 (≈ 1.67 µM) | 1 (≈ 0.833 µM) | 2 (≈ 1.67 µM) | 2 (≈ 1.67 µM) | 64 (≈ 53.3 µM) | 32 (≈ 26.7 µM) | 8 (≈ 6.67 µM) | 4 (≈ 3.33 µM) | 16 (≈ 13.3 µM) | 8 (≈ 6.67 µM) | 128 (≈ 107 µM) | 64 (≈ 53.3 µM) | > 256 |  |  |  |  |  |  |
| NC12CC3CC(CC(C3)C1)C2 [AMANTADINE] |  |  |  |  |  |  |  |  |  |  |  |  |  |  |  | 4.70 | 5.15 | 5.04 | < 3.30 | < 3.30 | pEC50 (Influenza A virus [13]): 4.72 |
| COC(=O)[C@@H]1NC(=O)[C@H]2NC(=O)[C@H](NC(=O)[C@@H]3NC(=O)[C@H]4NC(=O)[C@H](NC(=O)[C@H](n5cc(CO[C@H]6O[C@H](COC(C)=O)[C@@H](OC(C)=O)[C@H](OC(C)=O)[C@H]6NC(C)=O)nn5)c5ccc(O)c(c5)Oc5cc4cc(O)c5C)[C@H](O)c4ccc(cc4)Oc4cc3cc(c4O)Oc3ccc(cc3)[C@H]2O)c2ccc(O)c(c2)-c2c(O)cc(O)cc21 | 8 (≈ 5.05 µM) | 2 (≈ 1.26 µM) | 64 (≈ 40.4 µM) | 1 (≈ 0.631 µM) | 256 (≈ 161 µM) | 0.5 (≈ 0.315 µM) | 8 (≈ 5.05 µM) | 8 (≈ 5.05 µM) | 4 (≈ 2.52 µM) | 4 (≈ 2.52 µM) | 256 (≈ 161 µM) | 4 (≈ 2.52 µM) | 256 (≈ 161 µM) | 4 (≈ 2.52 µM) | 2 (≈ 1.26 µM) | 5.10 | < 4.00 | < 4.00 | < 4.00 | < 4.00 | MBC (Enterococcus faecalis [7]): 256 µg/mL (≈ 161 µM); pEC50 (Influenza A virus [13]): 5.24 |
| CC(N)C12CC3CC(CC(C3)C1)C2 (stereo unspecified) [RIMANTADINE] |  |  |  |  |  |  |  |  |  |  |  |  |  |  |  | 3.65 | 5.40 | 5.25 | < 3.30 | < 3.30 | pEC50 (Influenza A virus [13]): 3.55 |
